# Laboratory results as given in US4434788A, “Enhancer of anti-tumor effect” (Yamasa Shoyu Kabushiki Kaisha, priority 1980, dated 1984).
# Like-named read-outs stand apart in the source and are kept apart here.
# What was measured:
# [1] = Plating efficiency of stationary-phase HA-1 cells given enhancer immediately after 1,000 R X-ray (inhibition of PLDR); format: cell-based, Chinese hamster; settings: chinese hamster, ha-1 cells, no irradiation, control 51, read-out: Plating efficiency, treated only with enhancer (after 7 hours)
# Experimental: (§1) (1) Cells under stationary phase, prepared by planting 2×10^5 cells/well of Chinese hamster-HA-1 cells in a multiwell dish and exchanging cultural medium every day starting on the third day and thereafter were irradiated with 1,000 R of X-rays. Immediately after radiation, 3'-dUrd, and 3'-dGuo in HANKs' balanced salt solution were administered. Then, after elapse of various times, the cells were taken off with trypsin, and a suitable number of cells were transferred into petri dishes for testing colony forming ability and plating efficiencies. The percentages of survival were calculated with corrections by the plating efficiencies with the pharmaceutical agents alone.
# [2] = tested on: Chinese hamster-HA-1 cells; experiment: as above; format: cell-based; settings: for Plating efficiency after 4 hours: control 2.1; for Plating efficiency after 7 hours: control 3.3
# Experimental: as §1
# [3] = tested on: EMT-6 tumors; experiment: Radiosensitizing effect on EMT-6 tumor in mouse, 1500 rad, tumor size and cure; format: in vivo, BALB/c-strain female mice
# [4] = tested on: EMT-6 tumors; experiment: Radiosensitizing effect on EMT-6 tumor in mouse, cure percentage and TCD50; format: in vivo, BALB/c-strain female mice; settings: 100 mg/kg i.p. after irradiation; for Cure number/Number treated / Cure percentage: >90 days
# Experimental: EMT-6 tumor cells (2×10^5) were inoculated intradermally into the right thighs of BALB/c-strain female mice (8 weeks old). When the tumor sizes reached 5.5 to 8.0 mm after inoculation of the tumor cells, irradiation was locally carried out with 1,000 rad to 2,700 rad of 32 MeV electron beam under no anesthesia, and thereafter 3'-dAdo and 3'-dGuo, each dissolved in physiological saline solution, were administered intraperitoneally in a dose of 100 mg/kg. After the treatments, observation was continued for longer than 90 days, and the cure percentages were determined for comparison with the control group. [formula]
# (2) TCD50 =50% Tumor control dose
# [5] = tested on: EMT-6 tumors; experiment: Enhancement of the effect of anti-tumor agents on EMT-6 tumor in mouse; format: in vivo, BALB/c-strain mice
# Experimental: (1) EMT-6 tumor cells (1×10^6) were inoculated intradermally into the right thighs of BALB/c-strain mice (7 weeks old). On the 10th day after inoculation of the tumor cells and thereafter, various enhancer chemicals in physiological saline solutions were administered intrapenitoneally to the mouse every other day in the indicated doses for respective agents. The pharmaceutical agents of the present invention were administered 30 minutes after administration of the anti-tumor agents. After commencement of the treatment with pharmaceutical agents, the tumor sizes were measured every other day and compared with the control group.
# [6] = Acute toxicity test; settings: mouse, in vivo, ip, ICR mice, male, one week; estimated
# Experimental: A quantity of 3'-dGuo was administered intraperitoneally to ICR mice (male, 8-weeks old, 10 mice for each group) in a dose of 500 mg/kg or 1,000 mg/kg, and the mice were subjected to observation for a week.
# [7] = tested on: potentially lethal damage repair; experiment: PLDR-inhibiting / radiosensitizing activity (general statements)
# [8] = Irradiation 1500 rad + 3'-dGuo 2.0 mg/mouse, irradiation alone 0%
# [9] = Irradiation 1500 rad + 3'-dGuo 2.0 mg/mouse, irradiation alone 0/10
smiles,measurement,setting,value
"Nc1nc2c(ncn2[C@@H]2O[C@H](CO)C[C@H]2O)c(=O)[nH]1 [3'-dGuo, 3'-deoxyguanosine]",viability at 7 h,[1]; 3'-dGuo 10 μg/ml,50%
same,viability at 7 h,[1]; 3'-dGuo 20 μg/ml,47%
same,viability at 7 h,[1]; 3'-dGuo 40 μg/ml,45%
same,Plating efficiency after 4 hours,"[2]; 3'-dGuo 10 μg/ml after 1,000 R",1.6%
same,Plating efficiency after 7 hours,"[2]; 3'-dGuo 10 μg/ml after 1,000 R",2.6%
same,Plating efficiency after 1 hour,"[2]; 3'-dGuo 10 μg/ml after 1,000 R, control (0 μg/ml) 1.4",1.3%
same,Plating efficiency after 1 hour,"[2]; 3'-dGuo 20 μg/ml after 1,000 R, control 1.4",1.2%
same,Plating efficiency after 4 hours,"[2]; 3'-dGuo 20 μg/ml after 1,000 R",1.3%
same,Plating efficiency after 7 hours,"[2]; 3'-dGuo 20 μg/ml after 1,000 R",2.0%
same,Plating efficiency after 1 hour,"[2]; 3'-dGuo 40 μg/ml after 1,000 R, control 1.4",0.96%
same,Plating efficiency after 4 hours,"[2]; 3'-dGuo 40 μg/ml after 1,000 R",1.1%
same,Plating efficiency after 7 hours,"[2]; 3'-dGuo 40 μg/ml after 1,000 R",1.6%
same,Inhibition of repair (PLDR) after irradiation with X-rays,"[2]; HA-1 cells, Table 1",found to inhibit repair (PLDR) after irradiation with X-rays
same,Toxicity as examined by plating efficiencies,"[2]; HA-1 cells, Table 1",Substantially no toxicity was observed
same,Mean tumor diameter 2 weeks after treatment,"[3]; 3'-dGuo 100 mg/kg i.p. after 1500 rad, n = 19, baseline 6.19 ± 0.16 mm, irradiation alone 7.41",6.82 ± 0.44 mm
same,Mean tumor diameter 3 weeks after treatment,"[3]; 3'-dGuo 100 mg/kg i.p. after 1500 rad, n = 19, baseline 6.19 ± 0.16 mm, irradiation alone 8.29",4.83 ± 0.80 mm
same,Diameter ratio 2 weeks after treatment,"[3]; 3'-dGuo 100 mg/kg i.p. after 1500 rad, n = 19, irradiation alone 1.09",1.09 ± 0.06
same,Diameter ratio 3 weeks after treatment,"[3]; 3'-dGuo 100 mg/kg i.p. after 1500 rad, n = 19, irradiation alone 1.17",0.72 ± 0.12
same,Volume ratio 2 weeks after treatment,"[3]; 3'-dGuo 100 mg/kg i.p. after 1500 rad, n = 19, irradiation alone 1.44",1.49 ± 0.19
same,Volume ratio 3 weeks after treatment,"[3]; 3'-dGuo 100 mg/kg i.p. after 1500 rad, n = 19, irradiation alone 2.06",0.92 ± 0.21
same,Cure (number of mice),"[3]; Irradiation 1500 rad + 3'-dGuo 2.0 mg/mouse, 28 days, irradiation alone 1/10",6/19
same,Cure (percent),"[3]; Irradiation 1500 rad + 3'-dGuo 2.0 mg/mouse, 28 days, irradiation alone 10%",32%
same,0.5 to less than 1 of volume ratio excluding cure; Tumor regression rate: slow (percent),[3]; [8],18%
same,Less than 0.5 of volume ratio excluding cure; Tumor regression rate: rapid (percent),[3]; [8],11%
same,0.5 to less than 1 of volume ratio excluding cure; Tumor regression rate: slow (number),[3]; [9],3/19
same,Less than 0.5 of volume ratio excluding cure; Tumor regression rate: rapid (number),[3]; [9],2/19
same,1.0 to less than 2.0 of volume ratio excluding cure; regrowth: slow (number),"[3]; Irradiation 1500 rad + 3'-dGuo 2.0 mg/mouse, irradiation alone 3/10",6/19
same,2.0 or more of volume ratio excluding cure; regrowth: rapid (number),"[3]; Irradiation 1500 rad + 3'-dGuo 2.0 mg/mouse, irradiation alone 6/10",2/19
same,1.0 to less than 2.0 of volume ratio excluding cure; regrowth: slow (percent),"[3]; Irradiation 1500 rad + 3'-dGuo 2.0 mg/mouse, irradiation alone 30%",32%
same,2.0 or more of volume ratio excluding cure; regrowth: rapid (percent),"[3]; Irradiation 1500 rad + 3'-dGuo 2.0 mg/mouse, irradiation alone 60%",11%
same,TCD50 (50% Tumor control dose),"[4]; radiation doses given in rad, control 2400",1250 rad
same,TCD50 ratio,[4]; relative to control 1.0,0.52
same,Cure number/Number treated,"[4]; 1,000 rad, control 1/23",8/26
same,Cure percentage,"[4]; 1,000 rad, control 4%",31%
same,Cure number/Number treated,"[4]; 1,500 rad, control 8/44",21/29
same,Cure percentage,"[4]; 1,500 rad, control 18%",72%
same,Cure number/Number treated,"[4]; 2,100 rad, control 9/24",22/28
same,Cure percentage,"[4]; 2,100 rad, control 38%",79%
same,Cure number/Number treated,"[4]; 2,700 rad, control 13/28",22/25
same,Cure percentage,"[4]; 2,700 rad, control 47%",88%
same,Mean tumor diameter 18 days after commencement of treatment,"[5]; 3'-dGuo alone 50 mg/kg × 6, n = 10, before treatment 6.75 ± 1.20, control 11.43 ± 2.30",10.92 ± 3.23 mm
same,Mean tumor diameter ratio 18 days after commencement of treatment,"[5]; 3'-dGuo alone 50 mg/kg × 6, n = 10, control 1.97 ± 0.40",1.62 ± 0.48
same,Mean tumor diameter 7 days after commencement of treatment,"[5]; 3'-dGuo alone 50 mg/kg × 8, n = 6, before treatment 6.08 ± 0.69, control 7.38 ± 0.69",7.45 ± 2.07 mm
same,Mean tumor diameter 14 days after commencement of treatment,"[5]; 3'-dGuo alone 50 mg/kg × 8, n = 6, before treatment 6.08 ± 0.69, control 9.20 ± 1.78",9.10 ± 2.65 mm
same,Mean tumor diameter ratio 7 days after commencement of treatment,"[5]; 3'-dGuo alone 50 mg/kg × 8, n = 6, control 1.27 ± 0.17",1.21 ± 0.24
same,Mean tumor diameter ratio 14 days after commencement of treatment,"[5]; 3'-dGuo alone 50 mg/kg × 8, n = 6, control 1.57 ± 0.40",1.48 ± 0.30
same,Mean tumor diameter 7 days after commencement of treatment,"[5]; ACNU 25 mg/kg × 5 combined with 3'-dGuo 50 mg/kg × 5, n = 7, before treatment 6.23 ± 1.04, control 7.38",5.14 ± 2.29 mm
same,Mean tumor diameter 14 days after commencement of treatment,"[5]; ACNU 25 mg/kg × 5 combined with 3'-dGuo 50 mg/kg × 5, n = 7, before treatment 6.23 ± 1.04, control 9.20",4.90 ± 1.94 mm
same,Mean tumor diameter ratio 7 days after commencement of treatment,"[5]; ACNU 25 mg/kg × 5 combined with 3'-dGuo 50 mg/kg × 5, n = 7, control 1.27",0.80 ± 0.22
same,Mean tumor diameter ratio 14 days after commencement of treatment,"[5]; ACNU 25 mg/kg × 5 combined with 3'-dGuo 50 mg/kg × 5, n = 7, control 1.57",0.76 ± 0.19
same,Mean tumor diameter 7 days after commencement of treatment,"[5]; ADM 2 mg/kg × 8 combined with 3'-dGuo 50 mg/kg × 8, n = 10, before treatment 6.59 ± 1.14, control 7.38",6.16 ± 2.00 mm
same,Mean tumor diameter 14 days after commencement of treatment,"[5]; ADM 2 mg/kg × 8 combined with 3'-dGuo 50 mg/kg × 8, n = 10, before treatment 6.59 ± 1.14, control 9.20",6.30 ± 2.54 mm
same,Mean tumor diameter ratio 7 days after commencement of treatment,"[5]; ADM 2 mg/kg × 8 combined with 3'-dGuo 50 mg/kg × 8, n = 10, control 1.27",0.92 ± 0.18
same,Mean tumor diameter ratio 14 days after commencement of treatment,"[5]; ADM 2 mg/kg × 8 combined with 3'-dGuo 50 mg/kg × 8, n = 10, control 1.57",0.94 ± 0.31
same,Mean tumor diameter 18 days after commencement of treatment,"[5]; BLM 25 mg/kg × 4 combined with 3'-dGuo 50 mg/kg × 4, n = 10, before treatment 6.65 ± 0.96, control 11.43",5.60 ± 1.67 mm
same,Mean tumor diameter ratio 18 days after commencement of treatment,"[5]; BLM 25 mg/kg × 4 combined with 3'-dGuo 50 mg/kg × 4, n = 10, control 1.97",0.84 ± 0.25
same,Mean tumor diameter 18 days after commencement of treatment,"[5]; FT-207 100 mg/kg × 6 combined with 3'-dGuo 50 mg/kg × 6, n = 11, before treatment 6.39 ± 0.94, control 11.43",3.18 ± 2.38 mm
same,Mean tumor diameter ratio 18 days after commencement of treatment,"[5]; FT-207 100 mg/kg × 6 combined with 3'-dGuo 50 mg/kg × 6, n = 11, control 1.97",0.50 ± 0.37
same,Mean tumor diameter 7 days after commencement of treatment,"[5]; araC 50 mg/kg × 8 combined with 3'-dGuo 50 mg/kg × 8, n = 7, before treatment 6.04 ± 0.64, control 7.38",5.96 ± 1.77 mm
same,Mean tumor diameter 14 days after commencement of treatment,"[5]; araC 50 mg/kg × 8 combined with 3'-dGuo 50 mg/kg × 8, n = 7, before treatment 6.04 ± 0.64, control 9.20",5.34 ± 1.57 mm
same,Mean tumor diameter ratio 7 days after commencement of treatment,"[5]; araC 50 mg/kg × 8 combined with 3'-dGuo 50 mg/kg × 8, n = 7, control 1.27",0.97 ± 0.19
same,Mean tumor diameter ratio 14 days after commencement of treatment,"[5]; araC 50 mg/kg × 8 combined with 3'-dGuo 50 mg/kg × 8, n = 7, control 1.57",0.88 ± 0.21
same,LD50 at 168 h,[6],> 1000 mg/kg
same,Radiosensitizing activity,[7],excellent radiosensitizing activities
